Assay results published in patent US6407125B1, “Pharmacological agent and method of treatment” (Novactyl, Inc., priority 1995, dated 2002).

What was measured:
transformed cells = conditions: cited from earlier work
[1] = Nasal spray treatment of upper respiratory infection; assay type: in vivo, human; conditions: nasal spray 3 mM in physiologic saline, evening and bedtime, upon arising
Protocol: A college student presented with nasal congestion, slight fever, cough and sore throat. The subject began treatment with nasal spray containing 3 mM picolinic acid in physiologic saline vehicle. The subject used one or two sprays in each nostril after evening meal and before bedtime.

[2] = Topical treatment of inflammation associated with acne; assay type: in vivo; conditions: 5% to 10% aqueous solution; more than 35 cases, adults and teenagers
Text: (§1) Furthermore, it is believed that the response of cells to stress, such as exposure to UV radiation, chemicals, bacteria, parasites or fungi is associated with the induction of heat shock proteins.

lymphoma = assay: Oral treatment of lymphoma and impaired immunity; assay type: in vivo, human; conditions: oral 2000 to 4000 mg per day
Protocol: The patient was a person with a history of lymphoma and impaired immunity. The patient had received standard therapy for lymphoma including the CHOP regimen. […] The patient contracted pneumonia three or four times per year and suffered from chronic otitis, chronic sinusitis and chronic Herpes Zoster infections.
The patient was treated with oral picolinic acid starting at 2000 mg per day and increased to 4000 mg per day divided equally in four doses. […] Their immunoglobulin levels rose to 3.3. Their chronic ear and sinus infections and pneumonia resolved concurrently. The Herpes Zoster disappeared.

[3] = in a 70 Kg subject; cited from earlier work
human papilloma viruses = assay: Topical treatment of common warts; assay type: in vivo; conditions: 10% to 20% solution or 10% ointment in Aquaphor
Protocol: Five patients ranging in age from 11 years to 52 years and each having at least one common wart induced by human papilloma viruses was treated with a topical preparation of picolinic acid The topical preparation was either solution of 10% to 20% picolinic acid in deionized water or a topical ointment wherein 10% picolinic acid is incorporated into Aquaphor, i.e. 1 g of picolinic acid in 10 g of Aquaphor.

[4] = Topical treatment of sunburn; assay type: in vivo; conditions: 1%, 5% or 10% picolinic acid in absorption base; over 25 cases
Text: as §1

papilloma virus = assay: Topical treatment of ulcerative papilloma virus lesion in a horse; assay type: in vivo; conditions: for diameter of the lesion: initially 3 inch
Protocol: The lesion was progressive, with total loss of hair over the area. The diagnosis was viral disease, i.e. papilloma virus, complicated by fungal infection. The horse was treated with conventional local antibiotic and chemical therapies for about four months.
An aqueous solution of 10% picolinic acid in deionized water was applied every other day with a cotton swab over and around the lesion. The treatment continued for 45 days. The course of the regression of the viral lesion was as follows: […]

normal cells = conditions: longer exposure; most normal cells; cited from earlier work
[5] = cited from earlier work
[6] = Stability experiments as preservative in foods and on fresh fruits; assay type: physicochemical; conditions: in foods and on the surface of fresh fruits
Text: The chelating agents of the present invention can be used as preservatives in perishable items such as foods and pharmaceuticals and to prevent fungal growth on the surface of fresh fruits. Presently chemicals such as citrashine orthophenilphenol thiabendazole are used. […] Microbial and fungal growth is inhibited while the food components are unaffected. The preservative of the present invention has less likelihood of toxicity or untoward reactions if ingested that the present, complex chemical antifungals. The preferred concentration of picolinic acid or acceptable derivative for this use is approximately below 0.025% to be classified as a preservative. Of course, greater percentages, e.g. up to 99.9% also would be effective.

For `O=C(O)c1ccccn1` [picolinic acid, 2-Pyridine carboxylic acid], which “cytotoxicity in transformed cells” value (transformed cells) is on record?
The value was “cytotoxicity and cell death”.

And the upper respiratory symptoms [1]?
Its upper respiratory symptoms is “no fever or sore throat symptoms”.

And the “treatment of inflammation associated with acne” value [2]?
The value was “successfully treated”.

What about the “chronic ear and sinus infections and pneumonia” value (lymphoma) of the same compound?
The value was “resolved”.

What about the lymphoma response (lymphoma; approximately two weeks) of the same compound?
Its lymphoma response is “reduction in size of lymph nodes”.

And the immunoglobulin levels (lymphoma; before treatment 0.6 to 0.7)?
Its immunoglobulin levels is 3.3.

And the actinic lesion outcome (10% in Aquaphor daily, approximately three weeks, two patients)?
Its actinic lesion outcome is “completely cured”.

And the “effects on normal skin” value (in vivo)?
Its value is “without any effects on normal skin”.

What about the LD-50 [3] of the same compound?
The LD-50 was 140 grams.

What about the wart outcome (human papilloma viruses; after approximately 4 to 6 weeks) of the same compound?
The wart outcome was “the warts were gone”.

What about the wart appearance (human papilloma viruses; after seven days, five patients) of the same compound?
Its wart appearance is “central necrosis of the wart occurred”.

And the treatment of sunburn [4]?
The treatment of sunburn was “successfully used”.

And the lesion appearance (papilloma virus; 10% aqueous solution every other day, after 10 days)?
Its lesion appearance is “central necrosis”.

What about the “diameter of the lesion” value (papilloma virus; 10% aqueous solution, after 20 days) of the same compound?
The value was “approximately 2 inches”.

And the “diameter of the lesion” value (papilloma virus; 10% aqueous solution, after 30 days)?
The value was “about 1 inch”.

What about the lesion outcome (papilloma virus; 10% aqueous solution, at 45 days) of the same compound?
The lesion outcome was “resolved with some scar tissue”.

And the recurrence (papilloma virus; three additional months after treatment)?
The recurrence was “without evidence of recurring disease”.

And the “toxic effects in normal cells” value (normal cells)?
Its value is “no toxic effects”.

What about the solubility in water [5] of the same compound?
The solubility in water was “readily soluble in water”.

And the “stability as a preservative” value [6]?
The value was “highly stable”.
